According to the NIST ThermoML archive (doi:10.1021/je500804j):

Experiment: mn = molality of the nth substance listed, in mol/kg
Settings: 101 kPa, Liquid, Alternating current cell with electrodes

CCCCCCCC[N+](C)(C)CCCCCC[N+](C)(C)CCCCCCCC.[Br-].[Br-] + O
Settings	electrical conductivity [S/m]
293.15 K, m1 = 0.1245	0.9968
298.15 K, m1 = 0.00419	0.07905
298.15 K, m1 = 0.00827	0.1464
298.15 K, m1 = 0.01224	0.2076
298.15 K, m1 = 0.0161	0.2647
298.15 K, m1 = 0.01987	0.3161
298.15 K, m1 = 0.02353	0.3644
298.15 K, m1 = 0.02711	0.4098
298.15 K, m1 = 0.03059	0.4515
298.15 K, m1 = 0.03399	0.4914
298.15 K, m1 = 0.0373	0.5292
298.15 K, m1 = 0.04053	0.5645
298.15 K, m1 = 0.04369	0.5979
298.15 K, m1 = 0.04677	0.6299
298.15 K, m1 = 0.04978	0.6602
298.15 K, m1 = 0.05272	0.6887
298.15 K, m1 = 0.05559	0.7156
298.15 K, m1 = 0.0584	0.7419
298.15 K, m1 = 0.06114	0.7666
298.15 K, m1 = 0.06383	0.7898
298.15 K, m1 = 0.06645	0.812
298.15 K, m1 = 0.06902	0.833
298.15 K, m1 = 0.07154	0.8526
298.15 K, m1 = 0.074	0.8713
298.15 K, m1 = 0.07641	0.8887
298.15 K, m1 = 0.07877	0.9051
298.15 K, m1 = 0.08108	0.9203
298.15 K, m1 = 0.08334	0.9348
298.15 K, m1 = 0.08556	0.9485
298.15 K, m1 = 0.08773	0.9616
298.15 K, m1 = 0.08987	0.9739
298.15 K, m1 = 0.09196	0.9852
298.15 K, m1 = 0.09401	0.9959
298.15 K, m1 = 0.09602	1.006
298.15 K, m1 = 0.09799	1.016
298.15 K, m1 = 0.09992	1.025
298.15 K, m1 = 0.1018	1.033
298.15 K, m1 = 0.1037	1.042
298.15 K, m1 = 0.1055	1.05
298.15 K, m1 = 0.1073	1.058
298.15 K, m1 = 0.1091	1.066
298.15 K, m1 = 0.1108	1.073
298.15 K, m1 = 0.1125	1.08
298.15 K, m1 = 0.1142	1.087
298.15 K, m1 = 0.1158	1.094
298.15 K, m1 = 0.1174	1.1
298.15 K, m1 = 0.119	1.107
298.15 K, m1 = 0.1206	1.112
298.15 K, m1 = 0.1221	1.118
298.15 K, m1 = 0.1236	1.124
298.15 K, m1 = 0.1251	1.13
303.15 K, m1 = 0.00379	0.0878
303.15 K, m1 = 0.00748	0.1271
303.15 K, m1 = 0.01108	0.1968
303.15 K, m1 = 0.01459	0.2594
303.15 K, m1 = 0.01801	0.3174
303.15 K, m1 = 0.02135	0.3714
303.15 K, m1 = 0.02461	0.4209
303.15 K, m1 = 0.02779	0.4681
303.15 K, m1 = 0.0309	0.5124
303.15 K, m1 = 0.03394	0.5542
303.15 K, m1 = 0.03691	0.5939
303.15 K, m1 = 0.03981	0.6314
303.15 K, m1 = 0.04264	0.6668
303.15 K, m1 = 0.04542	0.7005
303.15 K, m1 = 0.04813	0.7326
303.15 K, m1 = 0.05078	0.7638
303.15 K, m1 = 0.05338	0.7917
303.15 K, m1 = 0.05592	0.8194
303.15 K, m1 = 0.05841	0.8457
303.15 K, m1 = 0.06085	0.8704
303.15 K, m1 = 0.06324	0.8926
303.15 K, m1 = 0.06558	0.9126
303.15 K, m1 = 0.06787	0.9342
303.15 K, m1 = 0.07011	0.9547
303.15 K, m1 = 0.07232	0.9738
303.15 K, m1 = 0.07448	0.9921
303.15 K, m1 = 0.07659	1.01
303.15 K, m1 = 0.07867	1.026
303.15 K, m1 = 0.08071	1.04
303.15 K, m1 = 0.08271	1.055
303.15 K, m1 = 0.08467	1.069
303.15 K, m1 = 0.0866	1.082
303.15 K, m1 = 0.08849	1.094
303.15 K, m1 = 0.09034	1.107
303.15 K, m1 = 0.09217	1.118
303.15 K, m1 = 0.09396	1.129
303.15 K, m1 = 0.09572	1.139
303.15 K, m1 = 0.09745	1.148
303.15 K, m1 = 0.09915	1.158
303.15 K, m1 = 0.1008	1.168
303.15 K, m1 = 0.1025	1.175
303.15 K, m1 = 0.1041	1.183
303.15 K, m1 = 0.1057	1.191
303.15 K, m1 = 0.1072	1.198
303.15 K, m1 = 0.1087	1.206
303.15 K, m1 = 0.1103	1.215
303.15 K, m1 = 0.1118	1.22
303.15 K, m1 = 0.1132	1.228
